The text below walks through data of ChEMBL document CHEMBL5360625, “Design, Synthesis, and Antitumor Activity Evaluation of 2-Arylmethoxy-4-(2,2'-dihalogen-substituted biphenyl-3-ylmethoxy) Benzylamine Derivatives as Potent PD-1/PD-L1 Inhibitors” (J Med Chem, 2023).

In general, IC50 refers to the point on the concentration scale where inhibition reaches its midpoint. Broadly, the half-life is how long it takes for the measured level to halve. Low values mean rapid decline, high ones slow decline. A word on the AUC(0-t): it is the area under the concentration-time curve up to a stated or last time point. A high value points to high exposure. As usually defined, the bioavailability is the share of a dose that reaches the circulation, judged against a reference dose that is usually intravenous. What is called CL/F is clearance divided by bioavailability, as obtained after extravascular dosing. Usually AUC(0-inf) stands for total exposure, with the tail of the curve extrapolated. The term Cmax denotes the peak of the concentration-time curve. Usually Tmax stands for the time from dosing to the highest level. The term AUC denotes the area under the concentration-time curve, a measure of exposure.

The target in series [1] is Programmed cell death protein 1/Programmed cell death 1 ligand 1 (Homo sapiens, UniProt Q9NZQ7). The experiment in a line: Inhibition of PD-1/PD-L1 interaction (unknown origin) incubated for 1 hr by HTRF assay. It counts as protein-complex assay. In general terms: TR-FRET usually uses a lanthanide donor and a delayed reading to cut background.
Sequence of Programmed cell death protein 1/Programmed cell death 1 ligand 1 (Q15116 whole entry): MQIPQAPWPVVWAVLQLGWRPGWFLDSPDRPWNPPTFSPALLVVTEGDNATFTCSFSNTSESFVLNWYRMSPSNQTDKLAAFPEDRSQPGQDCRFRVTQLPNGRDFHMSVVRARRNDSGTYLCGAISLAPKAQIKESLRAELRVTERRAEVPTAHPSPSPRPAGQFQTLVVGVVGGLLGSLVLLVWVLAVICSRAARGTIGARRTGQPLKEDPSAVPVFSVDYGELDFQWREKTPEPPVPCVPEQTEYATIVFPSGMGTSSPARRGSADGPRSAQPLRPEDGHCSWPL
Sequence of Programmed cell death protein 1/Programmed cell death 1 ligand 1 (Q9NZQ7 whole entry): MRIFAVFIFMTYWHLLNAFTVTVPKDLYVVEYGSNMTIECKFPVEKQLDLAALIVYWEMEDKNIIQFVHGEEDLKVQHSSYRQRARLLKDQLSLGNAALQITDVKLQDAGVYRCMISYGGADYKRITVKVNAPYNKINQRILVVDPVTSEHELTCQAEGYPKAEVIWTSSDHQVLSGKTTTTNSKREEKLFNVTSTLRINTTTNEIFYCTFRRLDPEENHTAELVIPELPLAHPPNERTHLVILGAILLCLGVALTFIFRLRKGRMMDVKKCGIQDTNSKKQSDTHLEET
The test system of series [2] is PBMC. Description: Cytotoxicity against human PBMC cells assessed as reduction in cell viability at 1 to 4 uM measured after 48 hrs by CCK-8 assay. It counts as toxicity, cell-based. Particulars: dose 1-4 µM. Background: Formazan colour is commonly taken as a measure of viable cells.
Series [3] can be described thus: Apparent volume of distribution in Sprague-Dawley rat at 8 mg/kg, iv measured upto 48 hrs by LC-MS/MS analysis. In kind it is ADME, organism-based. Particulars: in vivo, iv, 8 mg/kg, 48 h.
The nature of series [4]: Half life in Sprague-Dawley rat at 10 mg/kg, ip measured upto 48 hrs by LC-MS/MS analysis. In kind it is ADME, organism-based. The following applies: in vivo.
The nature of series [5]: AUC (0 to t) in Sprague-Dawley rat at 10 mg/kg, ip measured upto 48 hrs by LC-MS/MS analysis. In kind it is ADME, organism-based. Set-up: time < 48 hrs, dose 10 mg/kg, route ip. The following applies: in vivo.
Series [6] in a line: AUC (0 to t) in Sprague-Dawley rat at 40 mg/kg, IG measured upto 48 hrs by LC-MS/MS analysis. It counts as ADME, organism-based. More on the design: dose 40 mg/kg, time < 48 hrs, route ig. The following applies: in vivo, po.
Series [7] is described as follows: Apparent volume of distribution in Sprague-Dawley rat at 10 mg/kg, ip measured upto 48 hrs by LC-MS/MS analysis. In kind it is ADME, organism-based. The following applies: in vivo.
Series [8] can be described thus: Bioavailability in Sprague-Dawley rat at 40 mg/kg, IG measured upto 48 hrs by LC-MS/MS analysis. In kind it is ADME, organism-based. The following applies: in vivo, po.
A short description of series [9]: Clearance in Sprague-Dawley rat at 10 mg/kg, ip measured upto 48 hrs by LC-MS/MS analysis. It counts as ADME, organism-based. The following applies: in vivo.
A short description of series [10]: Half life in Sprague-Dawley rat at 8 mg/kg, iv measured upto 48 hrs by LC-MS/MS analysis. It counts as ADME, organism-based. The following applies: in vivo, iv, 8 mg/kg, 48 h.
Series [11] is described as follows: AUC (0 to infinity) in Sprague-Dawley rat at 8 mg/kg, iv measured upto 48 hrs by LC-MS/MS analysis. It counts as ADME, organism-based. Set-up: time < 48 hrs, dose 8 mg/kg, route iv. Particulars: in vivo.
Series [12] relates to MC-38. The experiment in a line: Antitumor activity against mouse MC38 cells expressing human PD-L1 protein assessed as reduction in cell viability measured after 48 hrs by CCK-8 assay. In kind it is functional, cell-based. The following applies: MC-38, 48 h.
Series [13] can be described thus: Cmax in Sprague-Dawley rat at 10 mg/kg, ip measured upto 48 hrs by LC-MS/MS analysis. It counts as ADME, organism-based. More on the design: time < 48 hrs, dose 10 mg/kg, route ip. Particulars: in vivo.
Series [14] can be described thus: Tmax in Sprague-Dawley rat at 10 mg/kg, ip measured upto 48 hrs by LC-MS/MS analysis. It counts as ADME, organism-based. The following applies: in vivo.
Series [15] is described as follows: Apparent volume of distribution in Sprague-Dawley rat at 40 mg/kg, IG measured upto 48 hrs by LC-MS/MS analysis. In kind it is ADME, organism-based. The following applies: in vivo, po.
The nature of series [16]: Cmax in Sprague-Dawley rat at 8 mg/kg, iv measured upto 48 hrs by LC-MS/MS analysis. It counts as ADME, organism-based. The following applies: in vivo. Set-up: time < 48 hrs, dose 8 mg/kg, route iv.
A short description of series [17]: Tmax in Sprague-Dawley rat at 8 mg/kg, iv measured upto 48 hrs by LC-MS/MS analysis. It counts as ADME, organism-based. The following applies: in vivo.
The nature of series [18]: Clearance in Sprague-Dawley rat at 8 mg/kg, iv measured upto 48 hrs by LC-MS/MS analysis. It counts as ADME, organism-based. Particulars: in vivo, iv, 8 mg/kg, 48 h.
The nature of series [19]: Clearance in Sprague-Dawley rat at 40 mg/kg, IG measured upto 48 hrs by LC-MS/MS analysis. It counts as ADME, organism-based. Particulars: in vivo, po, 40 mg/kg, 48 h.
A short description of series [20]: Cmax in Sprague-Dawley rat at 40 mg/kg, IG measured upto 48 hrs by LC-MS/MS analysis. It counts as ADME, organism-based. More on the design: dose 40 mg/kg, time < 48 hrs, route ig. The following applies: in vivo, po.
Series [21] can be described thus: Half life in Sprague-Dawley rat at 40 mg/kg, IG measured upto 48 hrs by LC-MS/MS analysis. Particulars: in vivo, po, 40 mg/kg, 48 h. In kind it is ADME, organism-based.
The nature of series [22]: AUC (0 to infinity) in Sprague-Dawley rat at 10 mg/kg, ip measured upto 48 hrs by LC-MS/MS analysis. Particulars: in vivo. More on the design: time < 48 hrs, dose 10 mg/kg, route ip. In kind it is ADME, organism-based.
A short description of series [23]: AUC (0 to t) in Sprague-Dawley rat at 8 mg/kg, iv measured upto 48 hrs by LC-MS/MS analysis. In kind it is ADME, organism-based. Set-up: dose 8 mg/kg, time < 48 hrs, route iv. The following applies: in vivo.
The nature of series [24]: AUC (0 to infinity) in Sprague-Dawley rat at 40 mg/kg, IG measured upto 48 hrs by LC-MS/MS analysis. It counts as ADME, organism-based. Set-up: time < 48 hrs, dose 40 mg/kg, route ig. Particulars: in vivo, po, 48 h.

In series [1], `N#Cc1cncc(COc2cc(OCc3cccc(-c4ccccc4F)c3Cl)ccc2CN[C@@H](CO)C(=O)O)c1` had an IC50 of 7.3 µM. For the same compound, in [2], the Activity entry is reported as “Non-Toxic”.

As for `Cc1c(COc2ccc(CNCCO)c(OCc3cncc(C#N)c3)c2)cccc1-c1ccccc1F`, the IC50 in series [1] is 8.5 µM. Moreover, the Activity entry in series [2] is on record as “Non-Toxic”.

In [1], `CC(=O)NCCNCc1ccc(OCc2cccc(-c3ccccc3F)c2C)cc1OCc1cncc(C#N)c1` showed a half-inhibitory concentration (IC50) of 24.3 µM. Further, the Activity result in series [2] was “Non-Toxic”.

`N#Cc1cccc(COc2cc(OCc3cccc(-c4ccccc4F)c3Cl)ccc2CNCCO)c1` returned an IC50 in series [1] of 12.7 µM. In series [2], the Activity entry is reported as “Non-Toxic”.

Take `COc1nc(OCc2cccc(-c3ccccc3)c2C)ccc1CNCCNC(C)=O`: the Activity entry in series [2] was “Non-Toxic”.

In series [1], `N#Cc1cccc(COc2cc(OCc3cccc(-c4ccccc4F)c3Cl)ccc2CN2CCC(O)C2)c1` (stereo unspecified) had an IC50 of 19.2 µM. For the same compound, the Activity result in series [2] is given as “Non-Toxic”.

Consider `N#Cc1cccc(COc2cc(OCc3cccc(-c4ccccc4F)c3)ccc2CNCCO)c1`, for which the IC50 in series [1] is above 500 µM.

On to `N#Cc1cccc(COc2cc(OCc3cccc(-c4ccccc4F)c3Cl)ccc2CNCC(=O)O)c1`, for which the Vz in [3] was 2.04 L/kg; in [7] it was 8.28 L/kg; in series [15], 65.83 L/kg. For the same compound, in series [4], the half-life is 97.8 min. In addition, the values for the AUC(0-t) at 48 h in [5], in series [6] and in [23] were 1970 ng·h/mL, 2660 ng·h/mL and 1370 ng·h/mL, respectively. The bioavailability in [8] came out at 42%. Also, the CL/F in [9] is 78 mL/min/kg. The values for the t1/2 in series [10] and in series [21] were 6.6 min and 188 min, respectively. Besides, the AUC(0-inf) was 1840 ng·h/mL in [11] and 2160 ng·h/mL in series [22]. Further, the values for the IC50 in series [12] and in series [1] were above 8 µM and 6 µM, respectively. In addition, the figures for the Cmax in series [13], in series [16] and in [20] were 786 ng/mL, 2530 ng/mL and 1290 ng/mL, respectively. Besides, the Tmax turned out to be 49.8 min in series [14] and 4.8 min in series [17]. The CL turned out to be 75.3 mL/min/kg in series [18] and 572.5 mL/min/kg in series [19]. Further, the Activity result in series [2] is recorded as “Non-Toxic”. In [24], this compound yielded an AUC of 2869.12 ng·h/mL.

With `N#Cc1cccc(COc2cc(OCc3cccc(-c4ccccc4F)c3Cl)ccc2CN2CC(C(=O)O)C2)c1`, half-maximal inhibition in [1] (IC50) required 33.6 µM.

Compound `COc1c(NCc2ccc(OCc3ccc(F)cc3)c(CNCCO)c2)cccc1-c1ccc2cc[nH]c2c1` had an IC50 in [1] above 32 µM.

Turning to `COc1c(COc2ccc(CN[C@H](C(=O)O)C(C)O)c(OCc3cccc(C#N)c3)c2)cccc1-c1ccccc1` (single isomer, unassigned), in [1], the IC50 worked out at 17.3 µM.

On to `N#Cc1cccc(COc2cc(OCc3cccc(-c4ccccc4F)c3F)ccc2CNCCO)c1`, for which the midpoint of inhibition in series [1], the IC50, lay at 130 µM.

For `COc1c(COc2ccc(CNCCNC(C)=O)c(OCc3cccnc3)c2)cccc1-c1ccccc1`, the IC50 in [1] was 9.4 µM.

In turn, `COc1c(COc2ccc(CNCCO)c(OCc3cncc(C#N)c3)c2)cccc1-c1ccccc1` displayed an IC50 in series [1] of 0.8 µM.

In [1], `COc1c(COc2ccc(CNCCNC(C)=O)c(OCc3cccc(C#N)c3)c2)cccc1-c1ccc(F)cc1` registered an IC50 of 16 µM.

`COc1c(COc2ccc(CN3CC(C(=O)O)C3)c(OCc3cncc(C#N)c3)c2)cccc1-c1ccccc1` registered an IC50 in series [1] of 4.7 µM.

`COc1c(COc2ccc(CNCCNC(C)=O)c(OCc3cccc(C#N)c3)c2)cccc1-c1ccc2ccccc2c1`: in [1], the IC50 turned out to be 16 µM.

Compound `COc1c(COc2cc(OCc3cncc(C#N)c3)c(CNCCNC(C)=O)cc2Cl)cccc1-c1ccccc1F` had an IC50 in [1] of 468 µM.

In series [1], `COc1c(COc2ccc(CN[C@H](CO)C(=O)O)c(OCc3cccc(C#N)c3)c2)cccc1-c1ccccc1` returned an IC50 of 3.2 µM.

In series [1], `COc1c(NCc2ccc(OCc3cccc(C#N)c3)c(CNCCNC(C)=O)c2)cccc1-c1ccc2ccccc2c1` registered an IC50 above 32 µM.

Turning to `COc1c(COc2ccc(CNCCO)c(OCc3cncc(C#N)c3)c2)cccc1-c1ccccc1F`, in series [1], 417 µM corresponded to half-maximal inhibition (IC50).

Take `COc1c(COc2ccc(CNCCNC(C)=O)c(OCc3cccc(C)c3)c2)cccc1-c1ccccc1`: in series [1], inhibition was half-maximal at 18.3 µM (IC50).

`COc1c(COc2ccc(CNCCNC(C)=O)c(OCc3cccc(C#N)c3)c2)cccc1-c1ccc2c(c1)OCCO2` displayed an IC50 in series [1] of 2.9 µM.

In turn, `COc1c(COc2ccc(OCc3cccc(C#N)c3)c(CNCCO)c2)cccc1-c1ccccc1` displayed an IC50 in series [1] above 32 µM.

`COc1c(COc2ccc(CNCCNC(C)=O)c(OCc3cncc(C#N)c3)c2)cccc1-c1ccccc1`: in series [1], the IC50 came out at 1.6 µM.

Turning to `COc1c(COc2ccc(CNCCO)c(OCc3cccc(C#N)c3)c2)cccc1-c1ccccc1`, inhibition in series [1] was half-maximal at 2.4 µM (IC50).

`COC(=O)c1ccc(COc2ccc(CNc3cccc(-c4ccccc4)c3OC)cc2CNCCO)cc1` displayed an IC50 in series [1] above 32 µM.

For `COc1c(COc2ccc(CN3CCC(O)C3)c(OCc3cncc(C#N)c3)c2)cccc1-c1ccccc1` (stereo unspecified), in series [1], the midpoint of inhibition, the IC50, lay at 6.2 µM.
